From patent US20260035367A1 (Celgene Corporation, priority 2021, published 2026)
Like-named read-outs stand apart in the source and are kept apart here.

Assays:
[1] = target: T1, Recombinant human PKC-theta (His-tagged 362-706) (Homo sapiens, UniProt Q04759); test: PKC-theta inhibition assay (HTRF KinEASE kit); assay type: biochemical; details: ATP 6.5 μM, STK substrate 525 nM
T1 construct: Recombinant human PKC-theta (His-tagged 362-706); His
Experimental: PKC-theta and PKC-delta biochemical activities were measured using the PKC-theta HTRF KinEASEkit kit, according to manufacturer's instructions (Cisbio, catalogue number 61ST1PEJ). Briefly, the kinase buffer component of the kit was supplemented with 10 mM MgCl2, 1 mM DTT and 0.1% Tween 20. […] The streptavidin_XL665 and STK antibody-cryptate detection reagents were mixed according to the manufacturer's instructions. Test compounds were diluted in DMSO in a series of 10 semi-log step doses; 10 nL of each compound dose were dispensed in 384 well plates. […] The reaction was started by addition of the substrate and ATP and incubated at 25° C. for 30 minutes or 20 minutes for the PKC-theta and PKC-delta assays, respectively. The detection reagents were added, and the plate was incubated in the dark for 2 hours. […] The ratio of acceptor and donor emission signals was calculated for each well. Percent inhibition values were calculated from the HTRF ratios at different doses and fitted to a 4-parameter logistic curve to determine IC50 values (see Table 2).

[2] = target: T2, Recombinant human PKC-delta (His-tagged 345-676) (Homo sapiens, UniProt Q05655); test: PKC-delta inhibition assay (HTRF KinEASE kit); assay type: biochemical; details: ratio, PKC-theta vs PKC-delta HTRF; for PKC-theta/PKC-delta selectivity (binned): binned A to G
T2 construct: PKC-delta (His-tagged 345-676); His

[3] = tested on: IL-2 secretion by human effector memory T cells (TEM); test: Effector memory T cells IL-2 release assay (CD3/CD28 stimulation, HTRF IL-2 detection); assay type: cell-based; details: 24 h; for IC50: Homo sapiens, T-cell
Experimental: Test compound-mediated inhibition of NFκB signalling in T cells was assessed by quantification of the IL-2 secretion by human effector memory T cells (TEM) upon treatment and stimulation. Human TEM cells were isolated from buffy coats of healthy donors obtained from the French blood bank.
Finally, 10 doses of test compound, originally prepared in DMSO by serial semi-log step dilution, were also added to cells in triplicate wells. Final DMSO concentration in wells was 0.1% in a total volume of 100 μL complete medium. Plates were incubated for 24 h at 37° C. in 5% CO2 atmosphere. After incubation, cell suspensions were centrifuged at 400×g and culture supernatants were recovered and stored at −80° C. […] IL-2 levels were determined in cell supernatants using an HTRF human IL-2 detection kit (Cisbio, cat #62HIL02PEH).

[4] = binned A to H, read-out: PKC-theta HTRF pIC50 (binned) (converted)
[5] = read-out: PKC-theta HTRF pIC50 (converted)
[6] = binned A to G, read-out: PKC-theta IL2 pIC50 (binned) (converted)
[7] = read-out: PKC-theta IL2 pIC50 (converted)

T2 sequence (Q05655 345-676): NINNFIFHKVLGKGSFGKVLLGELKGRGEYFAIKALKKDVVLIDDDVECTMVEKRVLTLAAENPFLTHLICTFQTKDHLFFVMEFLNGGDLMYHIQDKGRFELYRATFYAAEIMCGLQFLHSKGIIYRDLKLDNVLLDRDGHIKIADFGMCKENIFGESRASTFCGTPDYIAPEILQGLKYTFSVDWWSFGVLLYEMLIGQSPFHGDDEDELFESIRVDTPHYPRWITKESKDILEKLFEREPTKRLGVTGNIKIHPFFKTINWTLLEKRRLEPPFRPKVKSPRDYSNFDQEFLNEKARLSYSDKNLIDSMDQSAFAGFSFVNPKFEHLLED
T1 sequence (Q04759 362-706): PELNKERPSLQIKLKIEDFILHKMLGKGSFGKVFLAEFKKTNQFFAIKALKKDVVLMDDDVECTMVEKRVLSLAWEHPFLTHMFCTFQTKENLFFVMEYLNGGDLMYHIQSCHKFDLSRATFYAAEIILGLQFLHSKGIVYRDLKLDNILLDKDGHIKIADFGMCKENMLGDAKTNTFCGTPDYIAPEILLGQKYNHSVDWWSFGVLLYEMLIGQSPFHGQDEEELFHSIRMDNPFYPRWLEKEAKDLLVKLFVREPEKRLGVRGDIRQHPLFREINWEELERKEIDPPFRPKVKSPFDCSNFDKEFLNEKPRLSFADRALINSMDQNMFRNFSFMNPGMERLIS

Row | SMILES | IC50 [1, 4] [nM] | IC50 [1, 5] [nM] | PKC-theta/PKC-delta selectivity [2] | PKC-theta/PKC-delta selectivity (binned) [2] | IC50 [3, 6] [nM] | IC50 [3, 7] [nM] | PKC-theta IL2 pIC50 [3] | PKC-theta IL2 pIC50 (binned) ([3]; binned A to G)
1 | O=C1Cc2c(-c3cccc(N4CCNCC4)c3)ccnc2N1 [Example 4] | 100 to 316 | 251 | 8 | E (a ratio of between 5 and 10) | > 1000 | 5010 | – | –
2 | CC(F)(F)c1cc(-c2c(F)cnc3c2C(C)(C)C(=O)N3)nc(N2CCNCC2)c1 [Example 174] | 31.6 to 100 | 31.6 | 10 | D (a ratio of between 10 and 20) | 100 to 316 | 316 | – | –
3 | CC[C@@]1(O)C(=O)Nc2nccc(-c3cc(Cl)cc(N4CCN[C@@H](C)C4)n3)c21 (single isomer, unassigned) [Example 162] | 100 to 316 | 316 | 33 | B (a ratio of between 30 and 50) | 316 to 1000 | 794 | – | –
4 | C[C@@]1(O)C(=O)Nc2nccc(-c3cc(C(F)(F)F)cc(N4CCNC(CF)C4)n3)c21 (single isomer, unassigned) [Example 109] | 3.16 to 10 | 3.98 | 29 | C (a ratio of between 20 and 30) | 316 to 1000 | 794 | – | –
5 | C[C@H]1CN(c2cc(-c3ccnc4c3[C@@](C)(O)C(=O)N4)cc(C(F)(F)F)c2)CCN1 (single isomer, unassigned) [Example 81] | 10 to 31.6 | 25.1 | 9 | E (a ratio of between 5 and 10) | – | – | 6.7 | E (a measured pIC50 of between 6.5 and 7.0)
6 | C[C@@]1(O)C(=O)Nc2nccc(-c3cc(C(F)(F)F)cc(N4C[C@H]5CC[C@@H](C4)N5)n3)c21 (single isomer, unassigned) [Example 136] | 10 to 31.6 | 25.1 | 11 | D (a ratio of between 10 and 20) | 316 to 1000 | 501 | – | –
7 | CC1(O)C(=O)Nc2nccc(-c3cc(F)cc(N4CCNCC4)c3)c21 (stereo not drawn) [Example 46] | 10 to 31.6 | 12.6 | 3 | F (a ratio of between 1 and 5) | 100 to 316 | 251 | – | –
8 | CO[C@]1(C)C(=O)Nc2nccc(-c3cc(Cl)cc(N4CCNC[C@H]4C)n3)c21 (single isomer, unassigned) [Example 172] | 3.16 to 10 | 10 | 13 | D (a ratio of between 10 and 20) | 100 to 316 | 100 | – | –
9 | C[C@H]1CN(c2cc(-c3ccnc4c3[C@@](C)(O)C(=O)N4)cc(C(F)(F)F)c2)CCN1 (single isomer, unassigned) [Example 82] | 316 to 1000 | 1000 | 3 | F (a ratio of between 1 and 5) | – | – | 5.4 | G (a measured pIC50<6.0)
10 | C[C@H]1CN(c2ccc(Cl)c(-c3ccnc4c3[C@](C)(O)C(=O)N4)c2)CCN1 [Example 107] | 31.6 to 100 | 63.1 | 7 | E (a ratio of between 5 and 10) | 316 to 1000 | 501 | – | –
11 | C[C@H]1CN(c2cc(C(F)(F)F)cc(-c3ccnc4c3C(C)(C)C(=O)N4)n2)CCN1 [Example 141] | 3.16 to 10 | 3.98 | 16 | D (a ratio of between 10 and 20) | 31.6 to 100 | 50.1 | – | –
12 | C[C@@H]1CN(c2cc(C(F)(F)F)cc(-c3ccnc4c3[C@](C)(O)C(=O)N4)n2)CCN1 (single isomer, unassigned) [Example 108] | 10 to 31.6 | 12.6 | 15 | D (a ratio of between 10 and 20) | 100 to 316 | 126 | – | –
13 | CC1(C)C(=O)Nc2nccc(-c3cccc(S(=O)(=O)N4CCNCC4)c3)c21 [Example 42] | > 1000 | 2000 | 1 | F (a ratio of between 1 and 5) | > 1000 | 10000 | – | –
14 | C[C@@]1(O)C(=O)Nc2nccc(-c3cc(C(F)(F)F)cc(N4CCNC(CC(F)(F)F)C4)n3)c21 (stereo partly drawn) [Example 125] | 10 to 31.6 | 15.8 | 13 | D (a ratio of between 10 and 20) | 316 to 1000 | 398 | – | –
15 | CC1(C)C(=O)Nc2nccc(-c3cc(C(F)(F)F)cc(N4CCN[C@@H](CO)C4)n3)c21 [Example 83] | 1 to 3.16 | 3.16 | 20 | D (a ratio of between 10 and 20) | 31.6 to 100 | 79.4 | – | –
16 | CC[C@H]1CN(c2cc(C(F)(F)F)cc(-c3ccnc4c3C(C)(C)C(=O)N4)n2)CCN1 [Example 142] | 1 to 3.16 | 2 | 17 | D (a ratio of between 10 and 20) | 31.6 to 100 | 39.8 | – | –
17 | CC[C@H]1CN(c2ccc(Cl)c(-c3ccnc4c3[C@](C)(O)C(=O)N4)n2)CCN1 (single isomer, unassigned) [Example 128] | 10 to 31.6 | 25.1 | 5 | F (a ratio of between 1 and 5) | 100 to 316 | 316 | – | –
18 | CC[C@]1(C)C(=O)Nc2nccc(-c3cc(C(C)(F)F)cc(N4CCNC[C@H]4C)n3)c21 (single isomer, unassigned) [Example 201] | 0.316 to 1 | 0.501 | 18 | D (a ratio of between 10 and 20) | 3.16 to 10 | 7.94 | – | –
19 | C[C@@H]1CN(c2ccc(Cl)c(-c3ccnc4c3[C@](C)(O)C(=O)N4)c2)CCN1 [Example 106] | 316 to 1000 | 1000 | 10 | D (a ratio of between 10 and 20) | > 1000 | 10000 | – | –
20 | CC1C(=O)Nc2nccc(-c3cccc(CN(C)C)c3)c21 (stereo not drawn) [Example 22] | 316 to 1000 | 501 | 1 | F (a ratio of between 1 and 5) | > 1000 | 1580 | – | –
